# Assays:
# [1] = test system: adult mouse NSC; assay: 3H-thymidine incorporation into DNA of NSC; format: cell-based
# Procedure: (§1) The anterior lateral wall of the lateral ventricle of 5-6 week old mice was enzymatically dissociated in 0.8 mg/ml hyaluronidase and 0.5 mg/ml trypsin in DMEM containing 4.5 mg/ml glucose and 80 units/ml DNase at 37° C. for 20 min. The cells were gently triturated and mixed with three volumes of Neurosphere medium (DMEM/F12, B27 supplement, 12.5 mM HEPES pH7.4) containing 20 ng/ml EGF (unless otherwise stated), 100 units/ml penicillin and 100 μg/ml streptomycin. After passing through a 70 μm strainer, the cells were pelleted at 160×g for 5 min. The supernatant was subsequently removed and the cells resuspended in Neurosphere medium supplemented as above, plated out in culture dishes and incubated at 37° C. Neurospheres were ready to be split approximately 7 days after plating.
# (§2) To split neurosphere cultures, neurospheres were collected by centrifugation at 160×g for 5 min. The neurospheres were resuspended in 0.5 ml Trypsin/EDTA in HBSS (1×), incubated at 37° C. for 2 min and triturated gently to aid dissociation. Following a further 3 min incubation at 37° C. and trituration, 3 volumes of ice cold NSPH-media-EGF were added to stop further trypsin activity. The cells were pelleted at 220×g for 4 min, resuspended in fresh Neurosphere medium supplemented with 20 ng/ml EGF and 1 nM bFGF plated out and incubated at 37° C.
# (§3) In assays including pertussis toxin, the toxin was added at 100 ng/ml 24 hours prior to the second passaging. New toxin was added at the same dose in combination with S1P or LPA to the cells and assayed as described above.
# To determine thymidine incorporation into DNA, neurospheres were split and seeded in Neurosphere medium as single cells in 96-well plates, 10 000 cells/well. Substances to be measured were added in quadruplicates and cells were incubated at 37° C. for 3 days. 3H-thymidine, 10 uCi/ml, was present the last 24 hours. Cells were harvested on to a filter paper and radioactivity was measured. 3H-thymidine (6,7 Ci/mmol) was from PerkinElmer.
# [2] = test system: new born cells in the caudate putamen; assay: Intracerebroventricular infusion, BrdU-positive cells in caudate putamen; format: in vivo, rat; details: S1P 10 μM pump concentration, lateral ventricle, 0.5 μl/hr for 14 days
# Procedure: Arrival of animals: 06.1102 (30 animals), 13.11.02 (30 animals) and 20.11.02 (10 animals): Male Wistar rats, ca. 270 g, Harlan-Winkelmann Germany;
# Brain infusion kit II; Alzet osmotic mini-pump model 2002 (volume of pump: 200 μl, plus ca. 30-50 μl volume in tubing/flow-moderator; pumping rate: 0.5 μl/h (=12 μl/d) for 14 days; vehicle solution aCSF (artificial cerebrospinal fluid: 148 mM NaCl, 3 mM KCl, 1.4 mM CaCl2, 0.8 mM MgCl2, 1.5 mM Na2HPO4, 0.2 mM NaH2PO4, pH 7.4, sterile filtration; stored at −20° C.
# provided as 1 mg solid, dissolved in DMSO, aliquoted and kept in freezer, thawed and added aCSF to make pump solution, 0.1% DMSO maximum. […]
# Quantification in ipsilateral hemisphere: two slices (see point “Immunohistochemistry”) counting 2× one box (0.25 mm^2) in caudate putamen on each section.
# S1P (10 μM pump concentration) or vehicle, and BrdU (1 mg/ml pump concentration) was infused into the lateral ventricle of adult male Wistar rats at a rate of 0.5 μl/hr for 14 days. […] BrdU incorporated into the nuclei of proliferating cells was detected by DAB-immunohistochemistry. […] For quantification (FIG. 10), sections were taken in duplicate for each animal and counted manually (see above Methods). Results are expressed as the mean±SEM number of BrdU positive cells/0.25 mm^2 (S1P n=8) (Vehicle n=12) (**p<0.005 relative to Vehicle).
# [3] = in vitro EC50 listed in the handling of substances table
# [4] = test system: adult mouse NSC; assay: Intracellular ATP assay (cell number) in neurosphere-derived NSC; format: cell-based; details: for intracellular ATP levels, and hence NSC number, factor alone: S1P 100 nM or EGF 0.1 nM alone, 3 days (FIG. 8); for intracellular ATP levels, and hence cell number, relative to control: 3 days
# Procedure: as §1, §2
# Mouse neurospheres, cultured as described above, from passage 2, were seeded in DMEM/F12 supplemented with B27 into a 96-well plate as single cells (10000 cells/well) to the substances to be measured were added at the concentrations indicated. After 3 days incubation, intracellular ATP was measured using the ViaLight kit (BioWhittaker) according to the manufacturer's instructions. S1P and LPA were purchased from Avanti Polar Lipids, Inc.
# as §3
# In the experiment analysing the combinatory effect of S1P and EGF, S1P at 100 nM was co-incubated with 0.1 nM EGF for 3 days.
# [5] = test system: primary adult mouse NSC; assay: Primary NSC proliferation and neurosphere formation without growth factors; format: cell-based; details: LPA 10 μM, no EGF, 7 days (FIG. 9)
# Procedure: as §1
# Anterior lateral wall of the lateral ventricle was dissociated as described in the Methods above (Method A), and the cells resuspended in Neurosphere medium without EGF. The cell suspension was divided into a 24-well plate with triplicates of control (no addition), LPA treated and EGF (1 nM) treated cells. The final concentration of LPA was 10 μM. After 7 days the spheres were counted, inspected for growth and morphology and photographed using a Nikon Eclipse TE300 microscope and Nikon Spot Insight camera.
Compound,"incorporation of tritiated thymidine relative to control ([1]; S1P 1-100 nM, 3 days (FIG. 4B))",BrdU labeling of cells in coronal sections through the caudate putamen relative to vehicle ([2]; adult male Wistar rats),"number of BrdU positive cells/0.25 mm^2 (new born cells) in the caudate putamen relative to vehicle ([2]; n=8, p<0.005 (FIG. 10))",EC50 [3],"intracellular ATP levels, and hence NSC number, factor alone [4]","intracellular ATP levels, and hence cell number, relative to control ([4]; S1P 1-100 nM, non-adherent conditions (FIG. 4A))",incorporation of tritiated thymidine relative to control ([1]; LPA 4 nM (FIG. 5B)),incorporation of tritiated thymidine relative to control ([1]; LPA 10 nM (FIG. 5B)),incorporation of tritiated thymidine relative to control ([1]; LPA 10 μM (FIG. 5B)),sizes and number of neurospheres versus control [5],"intracellular ATP levels, and hence cell number, relative to control ([4]; LPA, two phases: 1-10 nM and 0.11-10 μM, non-adherent conditions (FIG. 5A))"
"CCCCCCCCCCCCC/C=C/[C@@H](O)[C@@H](N)COP(=O)(O)O [S1P, sphingosine-1-phosphate]",Greater incorporation,substantially greater number,significant increase,30 nM,increased,statistically significant increase,,,,,
"EGF: mitogen (growth factor) for neural progenitors, from BD Biosciences",,,,,increased,,,,,,
lysophosphatidic acid [LPA],,,,,,,Greater incorporation,no significant incorporation,Greater incorporation,observably greater,statistically significant increases

# — patent US8318704B2, “Modulation of neural stem cells and neural progenitor cells” (NeuroNova AB, priority 2002, dated 2012)
